{"source": "patent US20110065783A1", "about": "“HYDROXYLATED NEBIVOLOL METABOLITES” (priority 2005, published 2011)", "key": {"[1]": {"test_system": "HUVECs isolated from White and Black American donors", "experiment": "Acute NO release from endothelial cells of White and Black American donors (electrochemical nanosensors)", "format": "cell-based, human", "settings": "for NO (nM), Black Donors, acute NO release / NO (nM), White Donors, acute NO release: acute drug treatment 1.0 μM, mean±S.D. (n=5); for NO (nM), Black Donors, acute NO release: HUVECs from Black American donors; for NO (nM), White Donors, acute NO release: HUVECs from White donors", "source_text": "Values are mean±S.D. (n=5).\nThe 4′(R)-hydroxy-5-fluoro-l-nebivolol metabolite also exceeds the activity of nebivolol and even l-nebivolol by >50%. These findings indicate that hydroxy metabolites of nebivolol have distinct and highly reproducible effects on acute NO release in human endothelial cells.\nIn Table 1 and FIG. 7, the comparative effects of nebivolol, d-nebivolol, l-nebivolol and six stereoselective hydroxy metabolites on NO release are shown for cells harvested from white (open bars) and black American (solid bars) donors. The release of the NO from these endothelial cells was evaluated with electrochemical nanosensors placed within close proximity to the cell surface. […] The 4′(R)-hydroxy-5-fluoro-l-nebivolol metabolite (1689-64B) also exceeds the activity of l-nebivolol by >50%. The metabolite with the least activity is similar to nebivolol. These findings indicate that hydroxy metabolites of nebivolol have distinct and highly reproducible effects on acute NO release in human endothelial cells."}, "[2]": {"test_system": "human umbilical vein endothelial cells (HUVEC)", "experiment": "Peak NO release from HUVEC after acute treatment (porphyrinic probe)", "format": "cell-based", "experimental": "All measurements presented are recorded in vitro using a sensitive porphyrinic probe. NO release is measured directly from human umbilical vein endothelial cells (HUVEC). HUVEC cells were obtained from American Type Culture Collection (Manassas, Va.) and grown in Ham's F12K medium with 2 mM L-glutamine adjusted to contain 1.5 g/l sodium bicarbonate and supplemented with 0.1 mg/ml heparin and 0.03-0.05 mg/ml endothelial cell growth supplement (ECGS)=10% fetal bovine serum. The HUVEC cells were kept in an atmosphere of elevated CO2 concentration (5%). Nebivolol, its enantiomers, and nebivolol metabolites including the nebivolol glucuronides, 4-hydroxy-5′ phenol metabolite, 4-hydroxy-8′-phenol metabolite, 4-hydroxy, 5-hydroxy, 8-hydroxy metabolites, N-DAD, N-DACA and N-DAAA, are obtained from Mylan Laboratories (Morgantown, W. Va.)\nAll measurements of endothelial NO release are conducted in Hank's balance solution at 37° C. Cell wells are transferred to a Faraday cage and a porphyrinic sensor (diameter 0.5 mm) is positioned at a distance of 5±2 μm from the surface of the endothelial cells using an inverted microscope (Leica Microsystems, Wetzler, Germany) and a computer-assisted micromanipulator. The sensor operates with a three-electrode system: nanosensor (working electrode), saturated calomel electrode (reference electrode) and platinum wire (counter electrode, 0.5 mm diameter). The three electrodes are connected to a potentiostat/galvanostat PAR273. The baseline is stabilized after about 20 seconds. The test compounds are injected with a nanoinjector on to the surface of the cells following solubilization in buffer. The current proportional to the NO concentration is measured with the sensor, which operates in amperometric mode at a constant potential of 0.63V. Data are acquired with the use of an IBM computer with custom software and amperograms (current vs. time curves) and are recorded with a Guniry FAS1 Femtostat (Warminster, Pa.).\nNanosensors are prepared from carbon fibers. The size of the tip of carbon fiber is reduced from 6 μm to less than 1 μm by temperature controlled burning. The sensors are sensitized to NO by deposition of electrically conductive polymeric porphyrin and covered with a thin layer of Nafion. The prophyrinic microsensor has a response time of 0.1 ms at a micromolar NO concentration and 10 ms at the detection limit of 1 nM.\nThe nanosensor for NO is calibrated using saturated solution (concentration 1.82 mM verified with the coulometric method). Linear calibration curves are constructed for each sensor from […] before and after measurements of cell activity. The data are presented as the mean±SEM for each of the triplicate measurements. The data (calculation and plotting) are transferred to Microcal Origin Software (OriginLab Corp., Northampton, Mass.).\nThe HUVEC preparation is stable over the course of these experiments with the cells remaining viable in culture for >24 hours. Under non-stimulating conditions, basal levels of NO release are very low (<30 nM). Measurement of NO release as a function of treatment is conducted in individual endothelial cells. Multiple measurements of NO release can be conducted on single cells following a brief refractory period. For robust statistical analysis, separate cells are used for each concentration and type of drug used in these analyses."}, "[3]": {"test_system": "human endothelial cells", "experiment": "Capacity for NO release in human endothelial cells following chronic administration", "format": "cell-based"}}, "note": "pEC50: −log10 of the molar value.", "data": [{"smiles": "Oc1ccc2c(c1F)CCC(C(O)CNCC(O)C1CCc3cc(F)ccc3O1)O2", "note": "(stereo not drawn) [5-fluoro-6-hydroxy-l-nebivolol]", "values": [{"measurement": "NO (nM), Black Donors, acute NO release", "setting": "[1]", "result": "212 ± 9", "unit": "nM"}, {"measurement": "NO (nM), White Donors, acute NO release", "setting": "[1]", "result": "258 ± 20", "unit": "nM"}]}, {"smiles": "OC(CNCC(O)C1CCc2cc(F)ccc2O1)C1CCc2cc(F)ccc2O1", "note": "(racemic) [nebivolol]", "values": [{"measurement": "NO peak release", "setting": "[2]; 5 μM, acute, FIG. 4", "result": "~225", "unit": "nm"}, {"measurement": "NO (nM), Black Donors, acute NO release", "setting": "[1]", "result": "148 ± 10", "unit": "nM"}, {"measurement": "NO (nM), White Donors, acute NO release", "setting": "[1]", "result": "218 ± 11", "unit": "nM"}]}, {"smiles": "O[C@H](CNC[C@@H](O)[C@H]1CCc2cc(F)ccc2O1)[C@@H]1CCc2cc(F)ccc2O1", "note": "[d-nebivolol, reference compound]", "values": [{"measurement": "NO (nM), Black Donors, acute NO release", "setting": "[1]", "result": "87 ± 6", "unit": "nM"}, {"measurement": "NO (nM), White Donors, acute NO release", "setting": "[1]", "result": "127 ± 17", "unit": "nM"}]}, {"smiles": "Oc1cc2c(cc1F)OC(C(O)CNCC(O)C1C[C@@H](O)c3cc(F)ccc3O1)CC2", "note": "(stereo partly drawn) [4′(R)-Hydroxy-7-fluoro-6-hydroxy-l-nebivolol]", "values": [{"measurement": "NO (nM), Black Donors, acute NO release", "setting": "[1]", "result": "383 ± 18", "unit": "nM"}, {"measurement": "NO (nM), White Donors, acute NO release", "setting": "[1]", "result": "476 ± 20", "unit": "nM"}, {"measurement": "NO release, black donors", "setting": "[1]; acute treatment, endothelial cells from black donors", "result": "383 ± 18", "unit": "nmol/L"}, {"measurement": "NO release, white donors", "setting": "[1]; acute treatment, endothelial cells from white donors", "result": "476 ± 20", "unit": "nmol/L"}, {"measurement": "increase in NO release as compared to nebivolol", "setting": "[1]; acute treatment, white and black donors", "result": "nearly two-fold increase"}]}, {"smiles": "Oc1c(F)ccc2c1CCC(C(O)CNCC(O)C1CCc3cc(F)ccc3O1)O2", "note": "(stereo not drawn) [5-hydroxy nebivolol]", "values": [{"measurement": "peak NO release", "setting": "[2]; 10 μM, acute, FIG. 3", "result": "approximately 220 nM"}]}, {"smiles": "OC(CNCC(O)C1C[C@@H](O)c2cc(F)ccc2O1)C1CCc2cc(F)ccc2O1", "note": "(stereo partly drawn) [4′(R)-Hydroxy-l-nebivolol]", "values": [{"measurement": "NO (nM), Black Donors, acute NO release", "setting": "[1]", "result": "194 ± 10", "unit": "nM"}, {"measurement": "NO (nM), White Donors, acute NO release", "setting": "[1]", "result": "237 ± 11", "unit": "nM"}]}, {"smiles": "O[C@@H](CNC[C@H](O)[C@H]1CCc2cc(F)ccc2O1)[C@@H]1CCc2cc(F)ccc2O1", "note": "[l-nebivolol, reference compound]", "values": [{"measurement": "NO (nM), Black Donors, acute NO release", "setting": "[1]", "result": "192 ± 9", "unit": "nM"}, {"measurement": "NO (nM), White Donors, acute NO release", "setting": "[1]", "result": "268 ± 12", "unit": "nM"}]}, {"smiles": "OC(CNCC(O)C1C[C@H](O)c2cc(F)ccc2O1)C1CCc2cc(F)ccc2O1", "note": "(stereo partly drawn) [4(S)-Hydroxy-l-nebivolol]", "values": [{"measurement": "NO (nM), Black Donors, acute NO release", "setting": "[1]", "result": "151 ± 8", "unit": "nM"}, {"measurement": "NO (nM), White Donors, acute NO release", "setting": "[1]", "result": "204 ± 12", "unit": "nM"}]}, {"smiles": "Oc1ccc2c(c1F)CCC(C(O)CNCC(O)C1C[C@@H](O)c3cc(F)ccc3O1)O2", "note": "(stereo partly drawn) [4′(R)-Hydroxy-5-fluoro-6-hydroxy-l-nebivolol]", "values": [{"measurement": "NO (nM), Black Donors, acute NO release", "setting": "[1]", "result": "316 ± 17", "unit": "nM"}, {"measurement": "NO (nM), White Donors, acute NO release", "setting": "[1]", "result": "407 ± 27", "unit": "nM"}, {"measurement": "NO release activity in excess of l-nebivolol", "setting": "[1]; acute treatment, compared with l-nebivolol (b247 also nebivolol)", "result": "> 50", "unit": "%"}]}, {"smiles": "Oc1cc2c(cc1F)OC(C(O)CNCC(O)C1C[C@H](O)c3cc(F)ccc3O1)CC2", "note": "(stereo partly drawn) [4 (S)-Hydroxy-7′-fluoro-6′-hydroxy-l-nebivolol]", "values": [{"measurement": "NO (nM), Black Donors, acute NO release", "setting": "[1]", "result": "242 ± 12", "unit": "nM"}, {"measurement": "NO (nM), White Donors, acute NO release", "setting": "[1]", "result": "272 ± 12", "unit": "nM"}]}, {"smiles": "Oc1cc(F)cc2c1OC(C(O)CNCC(O)C1CCc3cc(F)ccc3O1)CC2", "note": "(stereo not drawn) [8-hydroxy nebivolol]", "values": [{"measurement": "peak NO release", "setting": "[2]; 10 μM, acute, FIG. 3", "result": "approximately 220 nM"}]}, {"smiles": "OC1CC(C(O)CNCC(O)C2CCc3cc(F)ccc3O2)Oc2ccc(F)cc21", "note": "(stereo not drawn) [4-hydroxy nebivolol]", "values": [{"measurement": "NO release compared with reference agents (in words)", "setting": "[2]; 5 μM, acute, FIG. 4", "result": "approximates values measured with acetylcholine"}, {"measurement": "peak NO release", "setting": "[2]; 5 μM, acute, FIG. 4", "result": "exceeds 400 nM"}, {"measurement": "NO release from human endothelial cells, concentration dependence (in words)", "setting": "[2]; acute administration", "result": "increase NO release from human endothelial cell in concentration dependent fashion"}, {"measurement": "pEC50", "setting": "[2]; acute, concentration-response, FIG. 6", "result": 6.30}, {"measurement": "capacity for NO release following chronic administration (in words)", "setting": "[3]", "result": "increase the capacity for NO release"}]}]}
